Series [1] deals with Ascaris suum antigen-induced bronchoconstriction and airway hyperreactivity. Put plainly: Ascaris suum-induced pulmonary responses in sheep. Format: in vivo. The protocol: One breath unit is defined as one breath of a 1% w/v carbachol solution. Test article was administered either by a pre-dosing or duration of action protocol. In the pre-dosing regimen, animals were dosed once daily for four days, with the last dose administered 1 hr before antigen. In the duration of action regimen, animals were dosed once daily for four days, with the last dose administered 24 hours before antigen. Test article, Ascaris antigen, and carbachol were administered by nebulized aerosol to intubated sheep.

For series [2], the system named is tobacco-smoke-induced airway inflammation. Kind of series: Tobacco smoke model of airway inflammation in mice. Format: in vivo, female C3H mice. Particulars: mean ± s.e.m. The protocol:
Vehicle and test articles are delivered by intratracheal instillation in 10% ethanol water to animals anesthetized with 3-5% isoflurane (n=8 animals per test article group). All compounds will be delivered on a daily (5 days per week) schedule for 3 weeks during the smoke exposures. Mice were exposed to cigarette smoke for 6 hours per day, 5 days per week for 3 weeks, in H1000 or H2000 chambers. Type 2R4F research cigarettes (Kentucky Tobacco Research and Development Center) were used in the study. Total particulate material (TPM) exposure was kept at […] for the first week to allow animals to reduce adverse effects during adaptation to smoke exposure. TPM exposure was maintained between 100 and 250 mg TPM/m^3 during the remainder of the study. After 3 weeks, animals were euthanized and bronchoalveolar lavage fluid was obtained for cell differentials and cytokine analysis by Luminex multiplex immunoassay.

Series [3] has as its system ragweed-induced bronchoconstriction. Put plainly: Ragweed-induced bronchoconstriction in dogs. In kind it is in vivo, beagle dogs. Particulars: mean ± s.e.m. On the procedure:
The compound of Example 52 was assesed for bronchodilator activity in a ragweed-induced bronchoconstriction model in beagle dogs. Dogs were mechanically ventilated during each experiment. Airflow and tidal volume were measured using a differential pressure transducer located in front of the endotracheal tube. An esophageal balloon catheter placed in the esophagus was used to determine transpulmonary pressure. Pulmonary resistance and dynamic lung compliance were calculated from the simultaneous measurement of transpulmonary pressure and respiratory flow. The canine exposure system was designed to expose an anesthetized animal via an intubation tube. Dogs were administered vehicle or test article by inhalation 30 minutes before ragweed antigen exposure (n=4). Dogs were challenged with ragweed antigen (ragweed short, Ambrosia artemisifolia, Greer, Lenoir, N.C.) by inhalation (5 breaths). Immediately following ragweed challenge, changes in pulmonary resistance and compliance were measured for up to 30 minutes.

The nature of series [4]: Stability of steroid C-21 esters, carbonates and carbamates in rat lung homogenate. Particulars: for Mean [Parent] (nM) at 2 hrs, 37° C.: parent compound; for Mean % compound remaining at 2 hrs, 37° C.: 900 nM, n=3.
Description: Lungs from Fischer 344 rats were obtained fresh by overnight delivery at 4° C. from BioReclamation Inc. (Hicksville, N.Y.). Lungs were weighed and homogenized in a 1:3 w/v ratio with sterile phosphate buffered saline (PBS, 10 mM, pH 7.4) in glass vials on ice. After centrifugation at 3,000×g for 10 min at 4° C. the supernatant was decanted into sterile conical tubes and placed on ice. The total protein content of the supernatant was determined by the bicinchoninic acid (BCA) method (Pierce Biotechnology, Rockford, Ill.), using bovine serum albumin (BSA) as the standard. Lung homogenates were prepared to a final concentration of 1 mg total protein/mL in 10 mM PBS, pH 7.4.
Heat-inactivation was achieved by incubation at 80° C. for 30 min, after which the homogenate was allowed to cool to room temperature, stored overnight at 4° C. The homogenate was used for the assay and standard curve preparations. Before use, each homogenate preparation was equilibrated for 15 min in a 37° C. water bath. […] DMSO (2.7 uL) added to 3 mL of temperature-equilibrated homogenate served as a control. Aliquots (100 uL) of homogenate+compound were added to 400 μL quenching solution consisting of 100% HPLC-grade acetonitrile+500 ng/mL glyburide for the zero time point (n=3 for each time point).
The glyburide served as an internal LC/MS/MS standard. The remainder of each drug+homogenate solution was aliquoted into a 96-well tissue culture plates. After an additional 30 min and 120 min incubation at 37° C., 100 μL aliquots were added to 400 μL quenching solution. Denatured proteins in the quenching solution were separated by centrifugation at 3000×g for 2 min at 4° C., and 160 μL of the supernatants were transferred to new 96-well plate for analysis by LC/MS/MS. Collection plates were covered with plastic film and were kept on ice. For storage, covered plates were and kept stored at −80° C. until further use.
An aliquot of 50 μL of each sample was diluted with 50 μL of water containing internal standard at 4° C. The diluted samples were then centrifuged for 20 minutes at 3000 rpm at 4° C. An aliquot of 20 μL of the solution was injected into the TSQ Ultra Quantum.
LC/MS/MS system. The compounds were separated by HPLC using a HyPurity C18 HPLC column (30×2.1 mm, 5μ) from ThermoHypersil. A Multiplex LX-2 HPLC system (Cohesive Technologies, Franklin, Mass.) with two identical Agilent 1100 series binary pumps (P/N G1312A) were used for elution and separation. Samples were maintained at 4° C. in an HTS Pal autosampler (LEAP Technologies, Carrboro, N.C.) in order to reduce any potential spontaneous hydrolysis of the compounds before injection onto the HPLC. The analytes were eluted using the following mobile phases; Mobile phase A contained 1% acetonitrile in 10 mM ammonium formate aqueous solution with 1% formic acid. Mobile phase B contained 80% acetonitrile in 10 mM ammonium formate with 1% formic acid. The HPLC elution program used to elute the analytes was as follows:
The samples were further analyzed by tandem mass spectrometry using a TSQ Quantum Ultra triple quadrupole mass spectrometer (Thermo Finnigan, San Jose, Calif.) using a selective reaction monitoring (SRM) scan type. The mass spectrometry parameters used were as follows:
Nine-point standard curves for each test compound were prepared and analyzed in heat-inactivated lung homogenate. […] The data expressed in Table 2 represent the mean (n=3) percent remaining compound in both types of homogenate at 2 hours, 37° C.
The nature of series [5]: Drug levels in plasma, BALF and lung after IT administration in the rat. Particulars: analyte after IT administration of Example 83, 1 mg/kg.
Description: Compounds of Examples 52 and 83 were formulated for intratracheal (IT) dosing in 10% EtOH, 90% Sterile Water, and dosed in male Sprague-Dawley rats at 3 mg/kg (Example 52) and 1 mg/kg (Example 83). Each dosing group consisted of 3 male, naïve purebred Sprague-Dawley rats. At dosing, the animals weighed ˜0.30 kg. The animals were fasted overnight prior to dose administration and up to 2 hr after dosing. The compounds were administered IT using a Penn Century Microsprayer (Model 1A-1B).
Blood samples were collected at 0.5, 2, and 4 hours post-dose. Each blood sample (0.5-0.6 mL per sample) was collected via the orbital sinus (following anesthesia for BAL procedure) into tubes containing EDTA anti-coagulant into containers surrounded by dry ice at 0.5, 2 and 4 hr (mean, n=6). Blood samples were stored at −20±5° C. until shipped for analysis.
The animals were anesthetized with an intramuscular (IM) injection of a ketamine/xylazine/acepromazine (80/10/2 mg/kg) cocktail at a dose volume of 1.1 mL/kg. A cannula (modified Bard® infant feeding tube) was inserted into the trachea. Warmed sterile saline was injected into the lungs. The lungs were gently massaged by palpation of the chest for approximately 45 seconds. The fluid (BALF) was recovered and placed on ice. The procedure was repeated two more times, and all three BALF samples pooled. The fluid was centrifuged under refrigerated conditions at 350 g for 10 minutes. The supernatant and cell pellet were collected and stored at approximately −70° C. until shipped for analysis.
Immediately following each BAL procedure, the lungs from each animal were removed, blotted dry, weighed, and stored frozen at −70° C. until shipped for analysis.
An LC/MS/MS method was used to measure the concentration of compound in plasma.
Add 3×w/v of 1×PBS buffer (90:10-PBS:ACN) to each lung tissue. Homogenize the sample w/Polytron (PT1200) and take 50 uL of supernatant and inject to LC/MSMS.
An aliquot of 50 μL of each plasma sample was treated with 100 mL of acetonitrile (ACN) containing internal standard. After the protein precipitation, an aliquot of 100 μL of the supernatant was transferred to a clean 96-well plate and mixed with 100 μL of water. An aliquot of 30 μL of the above solution was injected to the TSQ Ultra Quantum LC/MS/MS system.
A HyPurity C18 HPLC column (30×2.1 mm, 5μ) from ThermoHypersil (Part #: 22105-032130) was used. Mobile phase A contained 1% acetonitrile in 10 mM ammonium formate aqueous solution with 1% formic acid. Mobile phase B contained 80% acetonitrile in 10 mM ammonium formate with 1% formic acid. An Agilent 1100 series binary pump (P/N G1312A Bin Pump) was used for elution and separation. HTS Pal autosampler from LEAP Technologies, Carrboro, N.C. was used.
TSQ Quantum Ultra triple quadrupole mass spectrometer from Thermo Finnigan, San Jose, Calif. was used in selective reaction monitoring (SRM) operation mode, Tune file:
Series [6] deals with ovalbumin-induced lung inflammation. Put plainly: Mouse ovalbumin model of lung inflammation. In kind it is in vivo, Mice (Balb/c). As to conditions: 3.0 mg/kg IT, 1x/day day 14 and 15; mouse OVA. The protocol:
Mice (Balb/c) were immunized by intraperitoneal injection of ovalbumin (10 μg OVA suspended in 2 mg aluminum hydroxide) on day 0 and 7. One group was sensitized and treated with vehicle (NSV). One group was immunized with sterile water only and treated with vehicle, e.g. to serve as a nonsensitized (negative) control (Vehicle). […] On days 14 and 15, the animals were exposed to OVA by inhalation (3 h; 5 mg/m^3). Forty eight hours following the last OVA challenge (day 17) mice were sacrificed. Bronchoalveolar lavage (BAL) was taken from each animal to collect cells and fluid. Cell numbers and differentials were calculated from BAL.

Series [7] concerns LPS-induced airway inflammation. Put plainly: LPS-induced airway inflammation in rats. Format: in vivo, Male Fischer 344 rats. On the procedure:
Example 52 was evaluated in an LPS-induced airway inflammation model in rats. Male Fischer 344 rats (n 8/group) were treated with either vehicle or test article by intratracheal instillation in […] volume 1 hour prior to LPS challenge. Animals were then exposed to LPS by nose-only inhalation exposure for 10 minutes at 5 mg/m^3 resulting in an estimated 5 μg lung deposition. Animals were sacrificed 4 hours after LPS exposure. Lungs were lavaged for bronchoalveolar lavage cell differentials and cytokine analysis by Luminex multiplex immunoassay.

The mark [8] stands for this setting: Duration of action regimen (last dose 24 hours before antigen), Post-Ascaris, Example 52 4.7 mg, ciclesonide 2.2 mg, salmeterol xinafoate 2.5 mg, n=4.
Setting [9] is: Duration of action regimen, 1 hour, n=4.
[10] abbreviates: Duration of action regimen, 2 hours, n=4.
[11] abbreviates: Duration of action regimen, 3 hours, n=4.
The mark [12] stands for this setting: Duration of action regimen, 4 hours, n=4.
Setting [13] is: Duration of action regimen, 5 hours, n=4.
Setting [14] is: Duration of action regimen, 6 hours, n=4.
The mark [15] stands for this setting: Duration of action regimen, 6.5 hours, n=4.
The mark [16] stands for this setting: Duration of action regimen, 7 hours, n=4.
Where [17] appears, read: Duration of action regimen, 7.5 hours, n=4.
Setting [18] is: Duration of action regimen, 8 hours, n=4.
[19] abbreviates: Duration of action regimen, Baseline, Example 52 4.7 mg, ciclesonide 2.2 mg, salmeterol xinafoate 2.5 mg, n=4.
Setting [20] is: Duration of action regimen, Post-Antigen, n=4.
[21] abbreviates: 10 μg/kg by inhalation 30 minutes before ragweed, n=4.
Setting [22] is: Inactive (heat-inactivated) rat lung homogenate.
[23] abbreviates: 0.51 mg/kg i.t. daily, 3 weeks smoke.

`OCc1cc(C(O)CNCCCCCCOCCCCc2ccccc2)ccc1O` (centres unmarked) [Salmeterol Xinafoate, salmeterol xinafoate]: the “Bronchoconstriction, Lung Resistance (% Increase)” value (from here on “Bronchoconstriction … (% Increase)”) is 370 % Increase in series [1] (setting [8]); 213 % Increase in series [1] (setting [9]); 114 % Increase in series [1] (setting [10]); 64 % Increase in series [1] (setting [11]); 25 % Increase in series [1] (setting [12]); 54 % Increase in series [1] (setting [13]). The “Bronchoconstriction … (% Increase)” value was found to be 86 % Increase in series [1] (setting [14]); 85 % Increase in series [1] (setting [15]); 83 % Increase in series [1] (setting [16]); 76 % Increase in series [1] (setting [17]); 72 % Increase in series [1] (setting [18]). Also, the “Hyperreactivity PC400” value is listed as 29.5 carbachol breath units in series [1] (setting [19]) and 22.8 carbachol breath units in series [1] (setting [20]). Besides, the IL-1α in series [2] (0.57 mg/kg i.t.) was 4.22 ± 0.73 pg/mL. Besides, the MIP-1α in series [2] (0.57 mg/kg i.t.) was 6.09 ± 1.38 pg/mL. For the same compound, the Neutrophils in series [2] (0.57 mg/kg i.t.) is reported as 10.9 ± 2.5 ×10^4/ml. Also, the figures for the “Pulmonary Resistance (% of Baseline)” value in series [3] (3 μg/kg by inhalation) and in series [3] (setting [21]) were 265.6 ± 38.8 % of Baseline and 177.8 ± 14.4 % of Baseline, respectively.
With `C[C@]12C=CC(=O)C=C1CC[C@@H]1[C@@H]2[C@@H](O)C[C@@]2(C)[C@H]1C[C@H]1O[C@@H](C3CCCCC3)O[C@]12C(=O)CO` [des-ciclesonide, desisobutyryl ciclesonide, reference compound], the results for the “Mean [Parent] (nM) at 2 hrs, 37° C.” value in series [4] (Active homogenate) and in series [4] (Inactive homogenate) were 119 nM and 84 nM, respectively. Besides, the “Mean % compound remaining at 2 hrs, 37° C.” value is reported as 98% in series [4] (Active rat lung homogenate) and 71% in series [4] (setting [22]). For the same compound, the “Plasma Conc” value in series [5] (0.5 hr), in series [5] (2.0 hr) and in series [5] (4.0 hr) was “BLQ” throughout.
As to `CC(C)C(=O)OCC(=O)[C@@]12O[C@H](C3CCCCC3)O[C@@H]1C[C@H]1[C@@H]3CCC4=CC(=O)C=C[C@]4(C)[C@H]3[C@@H](O)C[C@@]12C` [Ciclesonide, ciclesonide], in series [6], the “Eosinophils in BAL, Mean” value was found to be 60170 mL⁻¹. The “Neutrophils in BAL, Mean” value in series [6] was found to be 4790 mL⁻¹. Moreover, the “Bronchoconstriction … (% Increase)” value in series [1] (setting [8]) is recorded as 416 % Increase; in series [1] (setting [9]), 224 % Increase; in series [1] (setting [10]), 146 % Increase; in series [1] (setting [11]), 69 % Increase; in series [1] (setting [12]), 21 % Increase; in series [1] (setting [13]), 44 % Increase. Moreover, the “Bronchoconstriction … (% Increase)” value in series [1] (setting [14]) is recorded as 66 % Increase; in series [1] (setting [15]) it was 71 % Increase; in series [1] (setting [16]), 65 % Increase; in series [1] (setting [17]) it was 62 % Increase; in series [1] (setting [18]), 50 % Increase; in series [1] (Predosing regimen (last dose 1 hr before antigen), Post-Ascaris, Example 52 4.7 mg, ciclesonide 2.2 mg, n=2), 305 % Increase. Also, the “Bronchoconstriction … (% Increase)” value in series [1] (Predosing regimen, 1 hour, n=2) was 142 % Increase; in series [1] (Predosing regimen, 2 hours, n=2), 44 % Increase; in series [1] (Predosing regimen, 3 hours, n=2) it was 8 % Increase; in series [1] (Predosing regimen, 4 hours, n=2) it was 6 % Increase; in series [1] (Predosing regimen, 5 hours, n=2), 14 % Increase; in series [1] (Predosing regimen, 6 hours, n=2), 28 % Increase. Also, the “Bronchoconstriction … (% Increase)” value in series [1] (Predosing regimen, 6.5 hours, n=2) is 12 % Increase; in series [1] (Predosing regimen, 7 hours, n=2), 28 % Increase; in series [1] (Predosing regimen, 7.5 hours, n=2), 33 % Increase; in series [1] (Predosing regimen, 8 hours, n=2), 15 % Increase. The “Hyperreactivity PC400” value in series [1] (setting [19]) came to 28.3 carbachol breath units; in series [1] (setting [20]), 21.5 carbachol breath units; in series [1] (Predosing regimen, Baseline, Example 52 4.7 mg, ciclesonide 2.2 mg, n=2) it was 26.5 carbachol breath units; in series [1] (Predosing regimen, Post-Antigen (24 hours after challenge), n=2), 25.5 carbachol breath units. Moreover, in series [1] (duration of action regimen), the “Effect on late phase bronchoconstriction and development of airway hyperreactivity” value is reported as “reduced efficacy”. Also, the results for the IL-1α in series [2] (0.31 mg/kg i.t.) and in series [2] (setting [23]) were 5.25 ± 0.85 pg/mL and 5.50 ± 0.96 pg/mL, respectively. The MIP-1α was found to be 8.31 ± 1.17 pg/mL in series [2] (0.31 mg/kg i.t.) and 10.02 ± 1.75 pg/mL in series [2] (setting [23]). Also, the Neutrophils in series [2] (0.31 mg/kg i.t.) is given as 13.9 ± 2.1 ×10^4/ml; in series [2] (setting [23]) it was 15.0 ± 1.5 ×10^4/ml; in series [7] (3 mg/kg intratracheal, 1 hour prior to LPS, rat BAL, mean ± s.e.m.) it was 9.7 ± 0.89 × 10^4/ml. Moreover, the TNFα in series [7] (3 mg/kg intratracheal, rat BAL, mean ± s.e.m.) is 629.2 ± 330.0 pg/mL. Also, the “Inhibition of LPS-induced airway inflammation measured as neutrophil influx and TNFα production” value in series [7] (at doses tested, versus vehicle control) was “significantly inhibit”. The “Pulmonary Resistance (% of Baseline)” value in series [3] (setting [21]) is recorded as 302.3 ± 24.8 % of Baseline. The “Mean [Parent] (nM) at 2 hrs, 37° C.” value in series [4] (Active homogenate) is recorded as 18 nM; in series [4] (Inactive homogenate), 154 nM. Besides, the “Mean % compound remaining at 2 hrs, 37° C.” value in series [4] (Active rat lung homogenate) is 12%; in series [4] (setting [22]), 88%.
